# From paper PMC4447944 (The Journal of Biological Chemistry, 2015)
# Legend:
# [1] = biological target: T1, hCAMK1G (Homo sapiens, UniProt Q96NX5); assay: KINOMEscan; assay type: binding
# T1 construct: purchased DiscoverX
# [2] = biological target: T2, hRSK2(Kin.Dom.2-C-term) (Homo sapiens, UniProt P51812); assay: KINOMEscan; assay type: binding
# T2 construct: hRSK2(Kin.Dom.2-C-term); purchased DiscoverX (KINOMEscan platform)
# [3] = biological target: T3, hIRAK4 (Homo sapiens, UniProt Q9NWZ3); assay: KINOMEscan; assay type: binding
# T3 construct: purchased DiscoverX (KINOMEscan panel)
# [4] = biological target: T4, hTNIK (Homo sapiens, UniProt Q9UKE5); assay: KINOMEscan; assay type: binding
# T4 construct: purchased DiscoverX
# [5] = biological target: T5, hTRβ1 (Homo sapiens, UniProt P10828); assay: Nuclear hormone receptor assay (Eurofins-CEREP); settings: read-out: Relative IC50
# T5 construct: Eurofins-CEREP
# [6] = biological target: T6, hABL1(F317L) (Homo sapiens, UniProt P00519, F317L); assay: KINOMEscan; assay type: binding
# T6 construct: purchased DiscoverX (KINOMEscan platform)
# [7] = biological target: T7, hTNNI3K (Homo sapiens, UniProt Q59H18); assay: KINOMEscan; assay type: binding
# T7 construct: purchased DiscoverX
# [8] = biological target: T8, hABL1(Q252H) (Homo sapiens, UniProt P00519, Q252H); assay: KINOMEscan; assay type: binding
# T8 construct: purchased DiscoverX (KINOMEscan platform)
# T2 sequence (P51812 422-679 limits assumed): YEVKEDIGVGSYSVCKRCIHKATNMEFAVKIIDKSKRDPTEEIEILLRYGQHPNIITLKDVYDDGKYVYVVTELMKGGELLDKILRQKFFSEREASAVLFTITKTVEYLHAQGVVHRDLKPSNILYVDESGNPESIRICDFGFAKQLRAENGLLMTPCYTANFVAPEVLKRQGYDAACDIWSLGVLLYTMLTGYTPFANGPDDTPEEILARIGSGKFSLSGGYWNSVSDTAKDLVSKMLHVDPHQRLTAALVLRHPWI
# T3 sequence (Q9NWZ3 whole entry): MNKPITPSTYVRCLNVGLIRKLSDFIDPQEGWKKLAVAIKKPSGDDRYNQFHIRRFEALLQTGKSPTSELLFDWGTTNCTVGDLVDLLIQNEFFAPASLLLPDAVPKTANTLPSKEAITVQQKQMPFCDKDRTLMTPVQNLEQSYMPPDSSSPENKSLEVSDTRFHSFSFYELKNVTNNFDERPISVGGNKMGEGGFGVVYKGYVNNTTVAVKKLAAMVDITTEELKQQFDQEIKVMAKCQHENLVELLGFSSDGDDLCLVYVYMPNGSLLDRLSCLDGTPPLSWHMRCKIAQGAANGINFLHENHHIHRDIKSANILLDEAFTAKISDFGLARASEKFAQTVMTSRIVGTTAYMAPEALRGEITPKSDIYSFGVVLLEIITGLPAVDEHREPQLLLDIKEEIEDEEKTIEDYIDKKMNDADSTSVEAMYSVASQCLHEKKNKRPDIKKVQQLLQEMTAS
# T4 sequence (Q9UKE5 whole entry): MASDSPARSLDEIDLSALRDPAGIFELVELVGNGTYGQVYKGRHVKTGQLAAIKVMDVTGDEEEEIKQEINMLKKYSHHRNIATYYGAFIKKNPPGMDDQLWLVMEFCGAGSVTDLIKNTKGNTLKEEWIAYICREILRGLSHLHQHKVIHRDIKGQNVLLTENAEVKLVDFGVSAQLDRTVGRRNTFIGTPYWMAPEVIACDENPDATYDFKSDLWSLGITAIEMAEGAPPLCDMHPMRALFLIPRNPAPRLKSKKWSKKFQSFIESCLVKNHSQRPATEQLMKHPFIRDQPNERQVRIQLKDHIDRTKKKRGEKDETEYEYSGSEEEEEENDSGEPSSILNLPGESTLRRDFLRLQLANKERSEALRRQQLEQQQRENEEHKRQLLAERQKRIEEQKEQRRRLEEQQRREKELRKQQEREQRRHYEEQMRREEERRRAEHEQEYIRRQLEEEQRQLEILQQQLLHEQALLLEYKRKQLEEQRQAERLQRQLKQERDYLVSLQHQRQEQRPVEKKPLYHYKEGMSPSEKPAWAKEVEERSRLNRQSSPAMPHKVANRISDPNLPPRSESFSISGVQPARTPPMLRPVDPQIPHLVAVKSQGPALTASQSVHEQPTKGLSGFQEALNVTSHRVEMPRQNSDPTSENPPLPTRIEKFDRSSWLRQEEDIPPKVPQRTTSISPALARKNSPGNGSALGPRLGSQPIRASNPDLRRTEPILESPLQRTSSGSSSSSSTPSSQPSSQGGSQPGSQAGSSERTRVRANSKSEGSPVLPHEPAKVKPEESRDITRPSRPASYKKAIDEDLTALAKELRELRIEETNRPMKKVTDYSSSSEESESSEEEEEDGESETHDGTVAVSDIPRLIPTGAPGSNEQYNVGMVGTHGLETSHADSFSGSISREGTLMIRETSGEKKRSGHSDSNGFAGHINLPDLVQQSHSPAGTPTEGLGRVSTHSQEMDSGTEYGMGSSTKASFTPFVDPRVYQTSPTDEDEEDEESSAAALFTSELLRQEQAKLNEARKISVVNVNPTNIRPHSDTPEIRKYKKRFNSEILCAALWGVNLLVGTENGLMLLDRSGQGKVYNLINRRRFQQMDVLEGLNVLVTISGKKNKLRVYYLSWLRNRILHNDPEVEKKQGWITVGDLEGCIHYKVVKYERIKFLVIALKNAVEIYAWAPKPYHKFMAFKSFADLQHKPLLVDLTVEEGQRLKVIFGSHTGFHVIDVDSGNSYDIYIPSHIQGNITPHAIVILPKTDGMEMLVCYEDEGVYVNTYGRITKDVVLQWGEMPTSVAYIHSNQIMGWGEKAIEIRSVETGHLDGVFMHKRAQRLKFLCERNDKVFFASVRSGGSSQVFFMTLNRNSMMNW
# T7 sequence (Q59H18 whole entry): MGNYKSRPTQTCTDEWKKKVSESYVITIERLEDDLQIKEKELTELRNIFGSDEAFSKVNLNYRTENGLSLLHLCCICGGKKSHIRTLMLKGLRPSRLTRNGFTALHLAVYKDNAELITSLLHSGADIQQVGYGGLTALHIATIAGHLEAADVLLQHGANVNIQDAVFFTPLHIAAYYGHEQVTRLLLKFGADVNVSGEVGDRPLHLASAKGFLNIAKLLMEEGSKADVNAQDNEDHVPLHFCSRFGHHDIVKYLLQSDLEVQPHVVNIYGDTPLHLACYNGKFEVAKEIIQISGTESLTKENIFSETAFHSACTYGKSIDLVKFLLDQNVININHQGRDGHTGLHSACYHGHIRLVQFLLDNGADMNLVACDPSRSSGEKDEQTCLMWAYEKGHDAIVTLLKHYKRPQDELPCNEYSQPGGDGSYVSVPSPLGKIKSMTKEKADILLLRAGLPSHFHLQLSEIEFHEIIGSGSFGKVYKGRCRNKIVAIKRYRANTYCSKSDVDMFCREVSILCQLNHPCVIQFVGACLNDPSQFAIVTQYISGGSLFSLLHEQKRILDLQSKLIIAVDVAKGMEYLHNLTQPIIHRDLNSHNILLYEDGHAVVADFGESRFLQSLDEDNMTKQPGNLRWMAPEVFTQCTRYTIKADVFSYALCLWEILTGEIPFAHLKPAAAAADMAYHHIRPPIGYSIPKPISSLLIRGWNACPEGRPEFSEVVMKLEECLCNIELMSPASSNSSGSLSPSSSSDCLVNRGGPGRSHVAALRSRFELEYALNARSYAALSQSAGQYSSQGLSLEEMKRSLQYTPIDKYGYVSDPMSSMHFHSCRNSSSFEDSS
# T5 sequence (P10828 whole entry): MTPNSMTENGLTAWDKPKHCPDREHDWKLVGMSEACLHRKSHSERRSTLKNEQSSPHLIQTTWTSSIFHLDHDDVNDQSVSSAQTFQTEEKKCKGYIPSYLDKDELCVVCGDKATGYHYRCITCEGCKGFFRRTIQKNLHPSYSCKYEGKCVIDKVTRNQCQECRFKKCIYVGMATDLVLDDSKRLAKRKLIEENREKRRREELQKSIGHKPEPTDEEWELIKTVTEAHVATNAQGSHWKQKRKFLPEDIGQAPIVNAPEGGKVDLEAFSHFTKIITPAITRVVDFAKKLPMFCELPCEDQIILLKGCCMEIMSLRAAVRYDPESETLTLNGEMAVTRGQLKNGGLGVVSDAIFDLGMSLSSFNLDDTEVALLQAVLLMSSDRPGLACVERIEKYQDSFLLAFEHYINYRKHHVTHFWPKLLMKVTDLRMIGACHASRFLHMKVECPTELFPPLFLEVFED
# T1 sequence (Q96NX5 whole entry): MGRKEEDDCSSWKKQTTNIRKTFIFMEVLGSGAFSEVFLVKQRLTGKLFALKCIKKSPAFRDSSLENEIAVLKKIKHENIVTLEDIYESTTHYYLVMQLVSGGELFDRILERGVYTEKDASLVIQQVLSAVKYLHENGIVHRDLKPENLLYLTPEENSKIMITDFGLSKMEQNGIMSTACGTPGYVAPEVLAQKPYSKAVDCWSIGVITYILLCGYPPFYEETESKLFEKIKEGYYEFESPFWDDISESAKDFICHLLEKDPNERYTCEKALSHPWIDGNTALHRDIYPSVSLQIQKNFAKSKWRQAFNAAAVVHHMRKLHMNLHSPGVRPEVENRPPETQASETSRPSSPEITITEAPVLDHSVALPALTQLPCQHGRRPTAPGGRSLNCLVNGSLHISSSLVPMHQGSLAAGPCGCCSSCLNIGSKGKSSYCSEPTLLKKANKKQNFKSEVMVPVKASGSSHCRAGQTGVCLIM
smiles,measurement,setting,value
"Cc1cn(CCN2CCN(c3ccccc3-c3cc(C#N)cc(C(=O)NCCCN4CCCC4)c3)CC2)c2ccccc12 [LLY-507, 3-cyano-5-{2-[4-[2-(3-methylindol-1-yl)ethyl]piperazin-1-yl]-phenyl}-N-[(3-pyrrolidin-1-yl)propyl]benzamide]",IC50,[1],> 20 µM
same,IC50,[2],> 20 µM
same,IC50,[3],> 20 µM
same,IC50,[4],> 20 µM
same,IC50,[5],> 10 µM
same,IC50,[6],> 20 µM
same,IC50,[7],> 20 µM
same,IC50,[8],> 20 µM
